{"source": "paper PMC5897276", "about": "“External radiation exposure, excretion, and effective half-life in ^177Lu-PSMA-targeted therapies” (EJNMMI Research, 2018)", "key": {"[1]": {"test": "Whole-body activity measurement with external gamma probe and analysis of excreted activity", "type": "in vivo, patients", "settings": "for Excreted activity Aex between given time point and previous time point, max / Excreted activity Aex between given time point and previous time point, mean / Excreted activity Aex between given time point and previous time point, min / Overall excreted activity as percentage of administered activity, max / Overall excreted activity as percentage of administered activity, mean / Overall excreted activity as percentage of administered activity, min: 25 patients (Department 2)", "experimental": "The analysis of the excretion of unbound ^177Lu-PSMA ligands and lutetium-177 was performed indirectly by measuring the remaining activity within the body of the patients at different time points with an external gamma probe. This has been proven to be a fast, simple, and robust method to estimate the activity within the body of the patient. The difference compared with the expected activity that can be calculated directly by the physical decay of the administered activity is assumed to be equivalent to the excreted activity.\nThe measurements were carried out in Department 2, using a cohort of 25 patients (see Table 1). The whole-body activity was measured at 0 h (before voiding, reference) and approximately at 2, 4, 12, 24, 48, and 72 h after the administration of ^177Lu-PSMA-617.\nThe remaining activity AWB in the patient at the given time point ti was determined by the following equation:1 AWBti=CAti⋅CPti/CFP, where cA(ti) and cP(ti) are the count rates (compensated for the background) at the given time point for the anterior and posterior views respectively. CFP is a patient-specific calibration factor based on a baseline measurement of each patient, performed immediately after administration of ^177Lu-PSMA-617 and before the first voiding of the bladder. This factor is calculated according to the following equation:2 CFP=CA0⋅Cp0/AP, where AP is the administered activity. This factor represents the efficiency of the detector for the spatially distributed activity and intrinsically considers the self-attenuation of the γ photons by the body of the patient.\nThe excreted activity Aex at the time point ti was calculated as the difference of the whole-body activity at the previous time point ti − 1 (corrected for decay) and the whole-body activity at the time point ti. The whole extracted activity can then be calculated as a summation:3 Aex=∑j=1iAWBti−1e^−ln2/T1/2∙ti−ti−1−AWBti,\nA 3″ × 3″-NaI (Tl) detector (Type 905-4) with multichannel analyzer and software (digiBASE, MAESTRO, Ortec, Oak Ridge, USA) was used as a measurement system. It was calibrated using americium-241, cobalt-57, cesium-137, and iodine-131 test sources, and regular quality checks were carried out. The shielded detector (collimator of 3 cm lead) was positioned 1 m above the floor, and the field of view covered the whole body of the patient. The energy window was set to 208 keV ± 27%, corresponding to approximately 3 × full width at half maximum of the energy resolution of the NaI (Tl) detector. The background was measured for 300 s without the presence of a patient. Patients were measured in anterior and posterior standing positions while holding arms close to the body at a distance of 2 m from the collimator surface. For all measurements, the acquisition time corrected for dead-time effects was set to 90 s. […] No further corrections (e.g., for pile-up or non-linearity) were applied. Statistical uncertainties of the count rate were below 1% for all measurements, as recommended by Hindorf et al.. Bi-exponential functions were fitted to the data, and the effective half-lives were calculated. The bi-exponential fit model was chosen after comparing the quality of fit of mono- and bi-exponential models using the Akaike criterion as described by Kletting et al.."}, "[2]": {"parameters": "method as in PMID 27089552", "settings": "group of 7 patients; cited from earlier work"}, "[3]": {"parameters": "method as in PMID 27089552", "settings": "cited from earlier work; for Mean dose rate at 1 m: 23 patients, 7.5 GBq"}, "[4]": {"test": "Estimation of dose to the public after discharge of the patient (Eq. 4)", "type": "in vivo, patients", "settings": "discharge 24 h p. i.", "from_the_text": "The determination of the expected dose D to the public requires knowledge of the dose rate DR at the time point of the release of the patient and of the effective half-life T1/2eff. The dose D can then be calculated according to the following equation:4 D=DR∙T1/2eff/ln2.\nThis equation was originally recommended by the German Commission on Radiological Protection to conservatively estimate the dose to the public after iodine-131 therapy.\nThe data were fitted by a mono-exponential curve, and the effective half-life was calculated for the different time points: 24, 48, and 72 h (only from the data of Department 2). […] For all comparisons, the time point 48 h was chosen as the reference, because it is standard that the patients are released from the therapy ward after 48 h. Subsequently, Eq. 4 was used to determine the dose D to the public after the discharge of the patient for different time points of release (24, 48, and 72 h p. i.), substituting T1/2eff by T1/2ind (individual half-life of each patient), T1/2phys (physical half-life of ^177Lu), and T1/2max (maximum of the calculated effective half-life of the patient cohort) for different calculations. In addition, a correlation analysis (Spearman and Pearson) of the dose rate and administered activity was performed."}, "[5]": {"settings": "T1/2ind (value from the 48-h measurement point)"}}, "note": "“And” between values parts separate entries of the source, which are not always exact repeats. Identical values can stand only once. Like-named read-outs stand apart in the source and are kept apart here.", "data": [{"smiles": "O=C([O-])CN1CCN(CC(=O)[O-])CCN(CC(=O)NCC2CCC(C(=O)N[C@@H](Cc3ccc4ccccc4c3)C(=O)NCCCC[C@H](NC(=O)N[C@@H](CCC(=O)O)C(=O)O)C(=O)O)CC2)CCN(CC(=O)[O-])CC1.[177Lu+3]", "note": "(some centres unmarked) [^177Lu-PSMA-617]", "values": [{"measurement": "Excreted activity Aex between given time point and previous time point, max", "setting": "[1]; 2 h p. i.", "value": 2621, "unit": "MBq"}, {"measurement": "Excreted activity Aex between given time point and previous time point, mean", "setting": "[1]; 2 h p. i.", "value": 1718, "unit": "MBq"}, {"measurement": "Excreted activity Aex between given time point and previous time point, min", "setting": "[1]; 2 h p. i.", "value": 735, "unit": "MBq"}, {"measurement": "Overall excreted activity as percentage of administered activity, max", "setting": "[1]; 2 h p. i.", "value": 42, "unit": "%"}, {"measurement": "Overall excreted activity as percentage of administered activity, mean", "setting": "[1]; 2 h p. i.", "value": 30, "unit": "%"}, {"measurement": "Overall excreted activity as percentage of administered activity, min", "setting": "[1]; 2 h p. i.", "value": 13, "unit": "%"}, {"measurement": "Excreted activity Aex between given time point and previous time point, max", "setting": "[1]; 4 h p. i.", "value": 1526, "unit": "MBq"}, {"measurement": "Excreted activity Aex between given time point and previous time point, mean", "setting": "[1]; 4 h p. i.", "value": 1265, "unit": "MBq"}, {"measurement": "Excreted activity Aex between given time point and previous time point, min", "setting": "[1]; 4 h p. i.", "value": 1060, "unit": "MBq"}, {"measurement": "Overall excreted activity as percentage of administered activity, max", "setting": "[1]; 4 h p. i.", "value": 62, "unit": "%"}, {"measurement": "Overall excreted activity as percentage of administered activity, min", "setting": "[1]; 4 h p. i.", "value": 30, "unit": "%"}, {"measurement": "Excreted activity Aex between given time point and previous time point, max", "setting": "[1]; 12 h p. i.", "value": 1323, "unit": "MBq"}, {"measurement": "Excreted activity Aex between given time point and previous time point, mean", "setting": "[1]; 12 h p. i.", "value": 1155, "unit": "MBq"}, {"measurement": "Excreted activity Aex between given time point and previous time point, min", "setting": "[1]; 12 h p. i.", "value": 1009, "unit": "MBq"}, {"measurement": "Overall excreted activity as percentage of administered activity, max", "setting": "[1]; 12 h p. i.", "value": 82, "unit": "%"}, {"measurement": "Overall excreted activity as percentage of administered activity, min", "setting": "[1]; 12 h p. i.", "value": 48, "unit": "%"}, {"measurement": "Excreted activity Aex between given time point and previous time point, max", "setting": "[1]; 24 h p. i.", "value": 474, "unit": "MBq"}, {"measurement": "Excreted activity Aex between given time point and previous time point, mean", "setting": "[1]; 24 h p. i.", "value": 395, "unit": "MBq"}, {"measurement": "Excreted activity Aex between given time point and previous time point, min", "setting": "[1]; 24 h p. i.", "value": 318, "unit": "MBq"}, {"measurement": "Overall excreted activity as percentage of administered activity, max", "setting": "[1]; 24 h p. i.", "value": 87, "unit": "%"}, {"measurement": "Overall excreted activity as percentage of administered activity, mean", "setting": "[1]; 24 h p. i.", "value": 76, "unit": "%"}, {"measurement": "Overall excreted activity as percentage of administered activity, min", "setting": "[1]; 24 h p. i.", "value": 53, "unit": "%"}, {"measurement": "Excreted activity Aex between given time point and previous time point, max", "setting": "[1]; 48 h p. i.", "value": 265, "unit": "MBq"}, {"measurement": "Excreted activity Aex between given time point and previous time point, mean", "setting": "[1]; 48 h p. i.", "value": 219, "unit": "MBq"}, {"measurement": "Excreted activity Aex between given time point and previous time point, min", "setting": "[1]; 48 h p. i.", "value": 160, "unit": "MBq"}, {"measurement": "Overall excreted activity as percentage of administered activity, max", "setting": "[1]; 48 h p. i.", "value": 89, "unit": "%"}, {"measurement": "Overall excreted activity as percentage of administered activity, mean", "setting": "[1]; 48 h p. i.", "value": 77, "unit": "%"}, {"measurement": "Overall excreted activity as percentage of administered activity, min", "setting": "[1]; 48 h p. i.", "value": 50, "unit": "%"}, {"measurement": "Excreted activity Aex between given time point and previous time point, max", "setting": "[1]; 72 h p. i.", "value": 82, "unit": "MBq"}, {"measurement": "Excreted activity Aex between given time point and previous time point, mean", "setting": "[1]; 72 h p. i.", "value": 68, "unit": "MBq"}, {"measurement": "Excreted activity Aex between given time point and previous time point, min", "setting": "[1]; 72 h p. i.", "value": 50, "unit": "MBq"}, {"measurement": "Overall excreted activity as percentage of administered activity, max", "setting": "[1]; 72 h p. i.", "value": 89, "unit": "%"}, {"measurement": "Overall excreted activity as percentage of administered activity, mean", "setting": "[1]; 72 h p. i.", "value": 78, "unit": "%"}, {"measurement": "Overall excreted activity as percentage of administered activity, min", "setting": "[1]; 72 h p. i.", "value": 54, "unit": "%"}, {"measurement": "Clearance of the unbound compound from the body", "setting": "[1]; in words", "value": "rapidly cleared from the body"}, {"measurement": "Excreted activity over a period of 72 h (per therapy cycle and patient), average", "setting": "[1]; of the administered 6.6 GBq, patient cohort 2", "value": "approximately 4.8 GBq"}, {"measurement": "Administered activity excreted within the first 6 h, mean", "setting": "[2]", "value": 45, "unit": "%"}, {"measurement": "Mean dose rate at 1 m", "setting": "[3]; after 4 h", "value": "23 ± 6", "unit": "μSv/h"}, {"measurement": "Mean dose rate at 1 m", "setting": "[3]; after 6 h", "value": "15 ± 4", "unit": "μSv/h"}, {"measurement": "Mean dose received by close family members", "setting": "[3]; measured for 5 days post-injection with optically stimulated luminescence dosimeter, patients released 6 h p. i.", "value": "202 ± 43", "unit": "μSv"}, {"measurement": "Estimated dose to the public after 1 cycle, mean", "setting": "[4]; [5]", "value": "100 μSv and 99 μSv"}, {"measurement": "Estimated dose to the public after 1 cycle, min", "setting": "[4]; [5]", "value": 25, "unit": "μSv"}, {"measurement": "Estimated dose to the public after 1 cycle, max", "setting": "[4]; T1/2max", "value": 410, "unit": "μSv"}, {"measurement": "Estimated dose to the public after 1 cycle, mean", "setting": "[4]; T1/2max", "value": 208, "unit": "μSv"}]}]}
